SMILES strings stand for the structures.

As a reminder, the EC50 is the concentration giving half of the maximal effect.

In this experiment the target is human APJ receptor (Homo sapiens (Human), UniProt P35414). Briefly: [35S]GTPγS binding assay on membranes from CHO cells stably expressing human APJ receptor. Format: biochemical. The note with it: [35S]GTPγS SPA, read-out: Activity hAPJ SPA EC50 IP. The gist of the method: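 Agonist-stimulated [35S]GTPγS binding measured on membranes of a stable human APJ CHO line, 90 min at room temperature, with GDP, MgCl2 and NaCl levels optimized beforehand. Means of independent runs fitted by non-linear regression to give EC50.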
Sequence of human APJ receptor (P35414 whole entry): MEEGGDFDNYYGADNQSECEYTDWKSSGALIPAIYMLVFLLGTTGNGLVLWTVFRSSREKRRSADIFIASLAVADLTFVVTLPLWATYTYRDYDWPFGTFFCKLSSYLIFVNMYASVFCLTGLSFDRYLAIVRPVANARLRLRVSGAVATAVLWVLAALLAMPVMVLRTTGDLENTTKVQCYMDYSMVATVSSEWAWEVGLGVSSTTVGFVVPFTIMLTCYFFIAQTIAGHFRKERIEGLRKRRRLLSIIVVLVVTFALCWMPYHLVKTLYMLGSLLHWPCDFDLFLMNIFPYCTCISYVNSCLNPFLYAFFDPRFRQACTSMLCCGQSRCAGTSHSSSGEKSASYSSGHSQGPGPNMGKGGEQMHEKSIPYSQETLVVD
(GTPγS is a poorly hydrolysed GTP analogue; its binding reports G protein activation.)
Take `COc1cccc(OC)c1-n1c(NS(=O)(=O)[C@@H](C)[C@H](C)c2ncc(C)cn2)nnc1[C@H]1C[C@H](Cl)C1` (single isomer, unassigned) [Example 193.0, (2S,3R)-N-(5-((1r,3S)-3-chlorocyclobutyl)-4-(2,6-dimethoxyphenyl)-4H-1,2,4-triazol-3-yl)-3-(5-methylpyrimidin-2-yl)butane-2-sulfonamide or (2S,3R)-N-(5-((1s,3R)-3-chlorocyclobutyl)-4-(2,6-dimethoxyphenyl)-4H-1,2,4-triazol-3-yl)-3-(5-methylpyrimidin-2-yl)butane-2-sulfonamide]: the 50% effective concentration (EC50) was 10 nM.
Under `COc1cccc(OC)c1-n1c(NS(=O)(=O)[C@@H](C)[C@H](C)c2ncc(C)cn2)nnc1[C@H]1C[C@H](Cl)C1` (single isomer, unassigned) [Example 194.0, (2S,3R)-N-(5-((1r,3S)-3-chlorocyclobutyl)-4-(2,6-dimethoxyphenyl)-4H-1,2,4-triazol-3-yl)-3-(5-methylpyrimidin-2-yl)butane-2-sulfonamide or (2S,3R)-N-(5-((1s,3R)-3-chlorocyclobutyl)-4-(2,6-dimethoxyphenyl)-4H-1,2,4-triazol-3-yl)-3-(5-methylpyrimidin-2-yl)butane-2-sulfonamide] stands 2.5 nM.
As to `COc1cccc(OC)c1-n1c(NS(=O)(=O)[C@@H](C)[C@H](OC)c2ncc(Cl)cn2)nnc1[C@H]1C[C@@](C)(F)C1` (single isomer, unassigned) [Example 195.0, (1R,2S)-1-(5-chloropyrimidin-2-yl)-N-(4-(2,6-dimethoxyphenyl)-5-((1s,3R)-3-fluoro-3-methylcyclobutyl)-4H-1,2,4-triazol-3-yl)-1-methoxypropane-2-sulfonamide or (1R,2S)-1-(5-chloropyrimidin-2-yl)-N-(4-(2,6-dimethoxyphenyl)-5-((1r,3S)-3-fluoro-3-methylcyclobutyl)-4H-1,2,4-triazol-3-yl)-1-methoxypropane-2-sulfonamide], the EC50 turned out to be 2.6 nM.
In the case of `COc1cccc(OC)c1-n1c(NS(=O)(=O)[C@@H](C)[C@H](OC)c2ncc(Cl)cn2)nnc1[C@H]1CC(=O)C1(C)C` (single isomer, unassigned) [Example 196.0, (1R,2S)-1-(5-chloropyrimidin-2-yl)-N-(4-(2,6-dimethoxyphenyl)-5-((R)-2,2-dimethyl-3-oxocyclobutyl)-4H-1,2,4-triazol-3-yl)-1-methoxypropane-2-sulfonamide or (1R,2S)-1-(5-chloropyrimidin-2-yl)-N-(4-(2,6-dimethoxyphenyl)-5-((S)-2,2-dimethyl-3-oxocyclobutyl)-4H-1,2,4-triazol-3-yl)-1-methoxypropane-2-sulfonamide], the 50% effective concentration (EC50) turned out to be 330 nM.
On to `COc1cccc(OC)c1-n1c(NS(=O)(=O)[C@@H](C)[C@H](OC)c2ncc(Cl)cn2)nnc1[C@H]1CC(=O)C1(C)C` (single isomer, unassigned) [Example 197.0, (1R,2S)-1-(5-chloropyrimidin-2-yl)-N-(4-(2,6-dimethoxyphenyl)-5-((R)-2,2-dimethyl-3-oxocyclobutyl)-4H-1,2,4-triazol-3-yl)-1-methoxypropane-2-sulfonamide or (1R,2S)-1-(5-chloropyrimidin-2-yl)-N-(4-(2,6-dimethoxyphenyl)-5-((S)-2,2-dimethyl-3-oxocyclobutyl)-4H-1,2,4-triazol-3-yl)-1-methoxypropane-2-sulfonamide], for which the concentration giving a half-maximal response (EC50) came out at 870 nM.
Take `COc1cccc(OC)c1-n1c(NS(=O)(=O)[C@@H](C)[C@H](OC)c2ncc(Cl)cn2)nnc1[C@H]1C[C@@](C)(F)C1` (single isomer, unassigned) [Example 198.0, (1R,2S)-1-(5-chloropyrimidin-2-yl)-N-(4-(2,6-dimethoxyphenyl)-5-((1s,3R)-3-fluoro-3-methylcyclobutyl)-4H-1,2,4-triazol-3-yl)-1-methoxypropane-2-sulfonamide or ((1R,2S)-1-(5-chloropyrimidin-2-yl)-N-(4-(2,6-dimethoxyphenyl)-5-((1r,3S)-3-fluoro-3-methylcyclobutyl)-4H-1,2,4-triazol-3-yl)-1-methoxypropane-2-sulfonamide]: the EC50 turned out to be 3.7 nM.
On to `COc1cccc(OC)c1-n1c(NS(=O)(=O)[C@@H](C)[C@H](OC)c2ncc(Cl)cn2)nnc1[C@H]1CC[C@@H](C#N)CC1` (single isomer, unassigned) [Example 199.0, (1R,2S)-1-(5-chloropyrimidin-2-yl)-N-(5-((1r,4R)-4-cyanocyclohexyl)-4-(2,6-dimethoxyphenyl)-4H-1,2,4-triazol-3-yl)-1-methoxypropane-2-sulfonamide or (1R,2S)-1-(5-chloropyrimidin-2-yl)-N-(5-((1s,4R)-4-cyanocyclohexyl)-4-(2,6-dimethoxyphenyl)-4H-1,2,4-triazol-3-yl)-1-methoxypropane-2-sulfonamide], for which the EC50 stood at 8.1 nM.
In the case of `COc1ncnc(OC)c1-n1c(NS(=O)(=O)[C@@H](C)[C@H](OC)c2ncc(Cl)cn2)nnc1[C@H]1C[C@]2(CC2(F)F)C1` (single isomer, unassigned) [Example 204.0, (1R,2S)-1-(5-chloropyrimidin-2-yl)-N-(5-((3R,5s)-1,1-difluorospiro[2.3]hexan-5-yl)-4-(4,6-dimethoxypyrimidin-5-yl)-4H-1,2,4-triazol-3-yl)-1-methoxypropane-2-sulfonamide or (1R,2S)-1-(5-chloropyrimidin-2-yl)-N-(5-((3S,5r)-1,1-difluorospiro[2.3]hexan-5-yl)-4-(4,6-dimethoxypyrimidin-5-yl)-4H-1,2,4-triazol-3-yl)-1-methoxypropane-2-sulfonamide], the half-maximal effective concentration (EC50) came out at 34 nM.
Take `COc1ncnc(OC)c1-n1c(NS(=O)(=O)[C@@H](C)[C@H](OC)c2ncc(Cl)cn2)nnc1[C@H]1C[C@]2(CC2(F)F)C1` (single isomer, unassigned) [Example 205.0, (1R,2S)-1-(5-chloropyrimidin-2-yl)-N-(5-((3R,5s)-1,1-difluorospiro[2.3]hexan-5-yl)-4-(4,6-dimethoxypyrimidin-5-yl)-4H-1,2,4-triazol-3-yl)-1-methoxypropane-2-sulfonamide or (1R,2S)-1-(5-chloropyrimidin-2-yl)-N-(5-((3S,5r)-1,1-difluorospiro[2.3]hexan-5-yl)-4-(4,6-dimethoxypyrimidin-5-yl)-4H-1,2,4-triazol-3-yl)-1-methoxypropane-2-sulfonamide]: the concentration for a half-maximal effect (EC50) was 5.5 nM.
As for `COc1cccc(OC)c1-n1c(NS(=O)(=O)[C@@H](C)[C@H](OC)c2ncc(Cl)cn2)nnc1[C@@H]1CC[C@H]1C` (single isomer, unassigned) [Example 208.0], the concentration giving a half-maximal response (EC50) turned out to be 2.7 nM.
For `COc1cccc(OC)c1-n1c(NS(=O)(=O)[C@@H](C)[C@H](OC)c2ncc(Cl)cn2)nnc1[C@H]1CC[C@H](OC)C1` (single isomer, unassigned) [Example 214.0], the EC50 worked out at 20 nM.
Take `COc1cccc(OC)c1-n1c(NS(=O)(=O)[C@@H](C)[C@H](OC)c2ncc(Cl)cn2)nnc1[C@H]1CC[C@H](OC)C1` (single isomer, unassigned) [Example 215.0]: the EC50 is 66 nM.
Take `COc1cccc(OC)c1-n1c(NS(=O)(=O)[C@@H](C)[C@@H](OC(C)C)c2ncc(C)cn2)nnc1[C@@H]1CCC(=O)C1` (single isomer, unassigned) [Example 229.0, (1S,2S)-N-(4-(2,6-dimethoxyphenyl)-5-((R)-3-oxocyclopentyl)-4H-1,2,4-triazol-3-yl)-1-isopropoxy-1-(5-methylpyrimidin-2-yl)propane-2-sulfonamide or (1S,2S)-N-(4-(2,6-dimethoxyphenyl)-5-((S)-3-oxocyclopentyl)-4H-1,2,4-triazol-3-yl)-1-isopropoxy-1-(5-methylpyrimidin-2-yl)propane-2-sulfonamide]: the EC50 is 30 nM.
As for `COc1cccc(OC)c1-n1c(NS(=O)(=O)[C@@H](C)[C@@H](OC(C)C)c2ncc(C)cn2)nnc1[C@@H]1CCC(=O)C1` (single isomer, unassigned) [Example 230.0, (1S,2S)-N-(4-(2,6-dimethoxyphenyl)-5-((R)-3-oxocyclopentyl)-4H-1,2,4-triazol-3-yl)-1-isopropoxy-1-(5-methylpyrimidin-2-yl)propane-2-sulfonamide or (1S,2S)-N-(4-(2,6-dimethoxyphenyl)-5-((S)-3-oxocyclopentyl)-4H-1,2,4-triazol-3-yl)-1-isopropoxy-1-(5-methylpyrimidin-2-yl)propane-2-sulfonamide], the EC50 was 190 nM.
For `COc1cccc(OC)c1-n1c(NS(=O)(=O)[C@@H](C)[C@@H](OC(C)C)c2ncc(C)cn2)nnc1[C@H]1C[C@@](C)(O)C1` (single isomer, unassigned) [Example 231.0, (1S,2S)-N-(4-(2,6-dimethoxyphenyl)-5-(trans-3-hydroxy-3-methylcyclobutyl)-4H-1,2,4-triazol-3-yl)-1-(5-methyl-2-pyrimidinyl)-1-(2-propanyloxy)-2-propanesulfonamide or (1S,2S)-N-(4-(2,6-dimethoxyphenyl)-5-(cis-3-hydroxy-3-methylcyclobutyl)-4H-1,2,4-triazol-3-yl)-1-(5-methyl-2-pyrimidinyl)-1-(2-propanyloxy)-2-propanesulfonamide], the 50% effective concentration (EC50) came to 220 nM.
In the case of `COc1cccc(OC)c1-n1c(NS(=O)(=O)[C@@H](C)[C@@H](OC(C)C)c2ncc(C)cn2)nnc1[C@@H]1CCC[C@@H]1OC` (single isomer, unassigned) [Example 233.0], the EC50 is 94 nM.
Take `COc1cccc(OC)c1-n1c(NS(=O)(=O)[C@@H](C)[C@@H](OC(C)C)c2ncc(C)cn2)nnc1[C@@H]1CCC[C@@H]1OC` (single isomer, unassigned) [Example 234.0]: the EC50 worked out at 12 nM.
With `COc1cccc(OC)c1-n1c(NS(=O)(=O)[C@@H](C)[C@@H](OC(C)C)c2ncc(C)cn2)nnc1[C@@H]1CCC[C@@H]1OC` (single isomer, unassigned) [Example 235.0], the concentration giving a half-maximal response (EC50) turned out to be 150 nM.

For the origin of these results see patent US11020395B2, “Cycloalkyl substituted triazole compounds as agonists of the APJ receptor” (AMGEN INC., priority 2016, dated 2021).
